PMC13342644, “Structural basis for transport and inhibition of nucleotide sugar transport in pathogenic fungi” (Nature Communications, 2026)

What was measured:
[1] = system: NDY5 yeast containing an empty yEP181 vector; assay: Hygromycin B-based in vivo viability (growth) assay; format: cell-based, Saccharomyces cerevisiae
Method: The yeast was grown in minimal media to select for the plasmids, and the expression of the nanobody was induced with galactose. After overnight galactose induction, the yeast culture was diluted, and growth was monitored over 30 h.
An overnight culture was grown in minus -Leu-Ura medium containing 2% glucose and then diluted 1:10 into medium containing 2% lactate. After 9 h of growth, 2% galactose was added, and the cultures were left overnight. […] The cultures were grown at 30 °C with shaking, and growth was monitored over the next 30 h by measuring the OD.

Vrg4 liposomes = format: biochemical; settings: liposome assays, GDP-mannose versus GMP as antiport substrate

With `CN[C@H]1C[C@@H](N)[C@H](O)[C@@H](O[C@@H]2O[C@H](CO)[C@H](O)[C@@H]3OC4(O[C@H]23)O[C@H]([C@@H](N)CO)[C@H](O)[C@H](O)[C@H]4O)[C@@H]1O` (some centres unmarked) [hygromycin B] as the molecule, how does the “Growth / sensitivity to hygromycin B, in words” value [1] read?
Its value is “sensitive”.

Which “Transport rate as antiport substrate, in words” value (Vrg4 liposomes) does the source give for `Nc1nc2c(ncn2[C@@H]2O[C@H](COP(=O)(O)OP(=O)(O)O[C@H]3O[C@H](CO)[C@@H](O)[C@H](O)[C@@H]3O)[C@@H](O)[C@H]2O)c(=O)[nH]1` [GDP-mannose] here?
The value was “faster transport rates and greater overall uptake”.
